According to ChEMBL document CHEMBL1133642, “Difluoro ketone peptidomimetics suggest a large S1 pocket for Alzheimer's gamma-secretase: implications for inhibitor design” (J Med Chem, 2000):

Assay: Concentration required for 50% inhibition of Amyloid beta protein production in Amyloid precursor protein (APP)-transfected Chinese hamster ovary(CHO) cells
Format: functional
Settings: Cricetulus griseus

Compound	IC50 [µM]
CCC(C)[C@H](NC(=O)[C@@H](NC(=O)C(F)(F)C(=O)[C@H](C)NC(=O)[C@@H](NC(=O)OC(C)(C)C)C(C)C)C(C)C)C(=O)OCc1ccccc1 (stereo partly specified)	4
CCC(C)[C@H](NC(=O)[C@@H](NC(=O)C(F)(F)C(=O)[C@H](C)NC(=O)[C@@H](NC(=O)OC(C)(C)C)C(C)C)C(C)C)C(=O)NC (stereo partly specified)	< 100
CCC(C)[C@H](NC(=O)[C@@H](NC(=O)C(F)(F)C(=O)[C@@H](NC(=O)[C@@H](NC(=O)OC(C)(C)C)C(C)C)c1ccccc1)C(C)C)C(=O)OC (stereo partly specified)	9
CCC(C)[C@H](NC(=O)[C@@H](NC(=O)C(F)(F)C(=O)[C@@H](NC(=O)[C@@H](NC(=O)OC(C)(C)C)C(C)C)C(C)CC)C(C)C)C(=O)OC (stereo partly specified)	6
CCC(C)[C@H](NC(=O)[C@@H](NC(=O)C(F)(F)C(=O)[C@H](C)NC(=O)[C@@H](NC(=O)OC(C)(C)C)C(C)C)C(C)C)C(=O)OC (stereo partly specified)	15
CCOC(=O)[C@@H](NC(=O)[C@@H](NC(=O)C(F)(F)C(=O)[C@H](C)NC(=O)[C@@H](NC(=O)OC(C)(C)C)C(C)C)C(C)C)C(C)CC (stereo partly specified)	9

Other lines, results leading:

IC50 [µM]	Compound
6	CCC(C)[C@H](NC(=O)[C@@H](NC(=O)C(F)(F)C(=O)[C@H](CC1CCCCC1)NC(=O)[C@@H](NC(=O)OC(C)(C)C)C(C)C)C(C)C)C(=O)OCc1ccccc1 (stereo partly specified)
25	CCC(C)[C@H](NC(=O)[C@@H](NC(=O)C(F)(F)C(=O)[C@H](C)NC(=O)[C@@H](NC(=O)OC(C)(C)C)C(C)C)C(C)C)C(=O)N(C)C (stereo partly specified)
4	CCC(C)[C@H](NC(=O)[C@@H](NC(=O)C(F)(F)C(=O)[C@H](CC1CCCCC1)NC(=O)[C@@H](NC(=O)OC(C)(C)C)C(C)C)C(C)C)C(=O)OC (stereo partly specified)
9	CCC(C)[C@H](NC(=O)[C@@H](NC(=O)C(F)(F)C(=O)[C@@H](NC(=O)[C@@H](NC(=O)OC(C)(C)C)C(C)C)C(C)C)C(C)C)C(=O)OC (stereo partly specified)

Assay: Inhibition of Amyloid beta protein production at 25 uM in Amyloid precursor protein (APP)-transfected Chinese hamster ovary(CHO) cells
Format: functional
Settings: Cricetulus griseus

Compound	inhibition at 25 µM [%]
CCC(C)[C@H](NC(=O)[C@@H](NC(=O)C(F)(F)C(=O)[C@H](C)NC(=O)[C@@H](NC(=O)OC(C)(C)C)C(C)C)C(C)C)C(=O)OC (stereo partly specified)	≥ 65
